Values after ≈ are worked out from the molar mass of the structure shown. Where two headings read alike, the source gives them in different places.
Key:
mock-infected MT-4 cells = assay: Cytotoxicity against mock-infected MT-4 cells, MTT; format: cell-based
Description: (§1) Compounds were tested for their inhibitory effects against replication of HIV-1 (IIIB) in MT-4 cells[1011]. The MT-4 cells were grown and maintained in RPMI 1640 DM medium supplemented with 10% (v/v) heat-inactivated fetal calf serum (FCS), 2 mM-glutamine, 0.1% sodium bicarbonate and 20 μg/ml gentamicin (culture medium). Inhibitory effect of test compounds on HIV-1 replications was monitored by inhibition of virus-induced cytopathic effect in MT-4 cells and was estimated by MTT assay. Briefly, 50 μl of HIV-1 (100-300 CCID50) were added to a flat-bottomed microtiter tray with 50 μl of medium containing various concentrations of compounds. MT-4 cells were added at a final concentration of 6×10^5 cells/ml. After 5 d of incubation at 37°, the number of viable cells were determined by the 3-(4,5-dimethylthiazol-2-yl)-2,5-diphenyl tetrazolium bromide (MTT) method. Cytotoxicity of test compounds against mock-infected MT-4 cells was also assessed by the MTT method. AntiHIV activity and cytotoxicity of standard AZT were also performed by a similar method in MT-4 cells.

HIV-1 (IIIB) = assay: Inhibition of HIV-1 (IIIB) induced cytopathic effect in MT-4 cells, MTT; format: cell-based; conditions: for EC50: MTT, 5 d, read-out: EC50, concentration achieving 50% protection of MT-4 cells against the cytopathic effect of HIV
[1] = Cytotoxicity against mock-infected MT-4 cells, MTT; format: cell-based; conditions: human; mock-infected MT-4 cells, MTT; read-out: CC50, concentration required to reduce the viability of mock-infected MT-4 cells by 50%
Description: as §1

in vitro = conditions: dog
influenza A (H5N1) = assay: microbe, parasite or virus in culture; format: cell-based; conditions: for EC50: Influenza A virus, H5N1, MDCK, read-out: EC50, 50% effective (virus-inhibitory) concentration; for Selectivity Index (CC50 divided by EC50): strain A(H5N1), MDCK cells
influenza B = assay: microbe, parasite or virus in culture; format: cell-based; conditions: strain B, MDCK cells; for EC50: Influenza B virus, CPE inhibition, neutral red, read-out: EC50, 50% effective (virus-inhibitory) concentration
influenza A (H3N2) = assay: microbe, parasite or virus in culture; format: cell-based; conditions: for EC50: Influenza A virus, H3N2, MDCK, read-out: EC50, 50% effective (virus-inhibitory) concentration; for Selectivity Index (CC50 divided by EC50): strain A(H3N2), MDCK cells
influenza A (H1N1) = assay: microbe, parasite or virus in culture; format: cell-based; conditions: strain A(H1N1), MDCK cells; for EC50: Influenza A virus, CPE inhibition, neutral red, read-out: EC50, 50% effective (virus-inhibitory) concentration
[2] = test system: influenza A and B viruses; assay: microbe, parasite or virus in culture; format: cell-based; conditions: MDCK, read-out: concentration inhibiting the replication of influenza A and B viruses
[3] = Human immunodeficiency virus 1, MT4, 120 h

| Compound | CC50 (mock-infected MT-4 cells; mock-infected MT-4 cells, MTT, read-out: CC50, concentration required to reduce the viability of mock-infected MT-4 cells by 50%) [µM] | Max Prot (HIV-1 (IIIB)) | EC50 (HIV-1 (IIIB)) [µM] | CC50 at 5 d [1] [µM] | CC50 (in vitro) [mg/L] | EC50 (influenza A (H5N1)) [mg/L] | EC50 (influenza B) [mg/L] | Selectivity Index (CC50 divided by EC50) (influenza B) | EC50 (HIV-1 (IIIB); [3]) [µM] | EC50 (influenza A (H3N2)) [mg/L] | Selectivity Index (CC50 divided by EC50) (influenza A (H3N2)) | EC50 (influenza A (H1N1)) [mg/L] | Selectivity Index (CC50 divided by EC50) (influenza A (H1N1)) | Selectivity Index (CC50 divided by EC50) (influenza A (H5N1)) | cytostatic activity in MT-4 cells (in words) (mock-infected MT-4 cells; MT-4 cells) | CC50 at 3 d (in vitro) [mg/L] | EC50 [2] [mg/L] |
| --- | --- | --- | --- | --- | --- | --- | --- | --- | --- | --- | --- | --- | --- | --- | --- | --- | --- |
| Cc1cn([C@H]2C[C@H](N=[N+]=[N-])[C@@H](CO)O2)c(=O)[nH]c1=O [AZT, reference compound] | 64.5 | 106 | 0.0064 | – | – | – | – | – | – | – | – | – | – | – | – | – | – |
| Cc1cc(C)nc(NS(=O)(=O)c2ccc(NCN3CCN(c4cc5c(cc4F)c(=O)c(C(=O)O)cn5C4CC4)CC3)cc2)n1 [CF-SDM] | – | – | – | 70.8 | > 100 | > 100 | 53 (≈ 85.3 µM) | >2 | > 70.8 | 30 (≈ 48.3 µM) | >3.3 | 18 (≈ 29 µM) | >5.6 | – | – | – | – |
| O=C(O)c1cn(C2CC2)c2cc(N3CCN(CNc4ccc(S(=O)(=O)Nc5ncccn5)cc4)CC3)c(F)cc2c1=O [CF-SD] | – | – | – | 74.1 | > 100 | 33 (≈ 55.6 µM) | 32 (≈ 53.9 µM) | >3 | > 74.1 | 41 (≈ 69.1 µM) | – | 16 (≈ 27 µM) | >6.1 | >3 | – | – | – |
| COc1c(N2CCN(CNc3ccc(S(N)(=O)=O)cc3)CC2)c(F)cc2c(=O)c(C(=O)O)cn(C3CC3)c12 [GF-SA] | – | – | – | 58.7 | > 100 | 32 (≈ 58.7 µM) | 36 (≈ 66 µM) | >3 | > 58.7 | > 100 | – | > 100 | – | >3 | – | – | – |
| COc1c(N2CCN(CNc3ccc(S(=O)(=O)Nc4nc(C)cc(C)n4)cc3)CC2)c(F)cc2c(=O)c(C(=O)O)cn(C3CC3)c12 [GF-SDM] | – | – | – | 39.4 | > 100 | 19 (≈ 29.2 µM) | 11 (≈ 16.9 µM) | >9 | > 39.4 | 38 (≈ 58.3 µM) | >2.6 | 33 (≈ 50.6 µM) | >3.1 | >5 | marked cytostatic activity | – | – |
| COc1c(N2CCN(CNc3ccc(S(=O)(=O)Nc4ncccn4)cc3)CC2)c(F)cc2c(=O)c(C(=O)O)cn(C3CC3)c12 [GF-SD] | – | – | – | 70.1 | > 100 | > 100 | 97 (≈ 156 µM) | >1 | > 70.1 | 52 (≈ 83.4 µM) | >1.9 | 34 (≈ 54.5 µM) | >3 | – | – | – | – |
| CCn1cc(C(=O)O)c(=O)c2cc(F)c(N3CCN(CNc4ccc(S(N)(=O)=O)cc4)CC3)cc21 [NF-SA] | – | – | – | 75.5 | > 100 | > 100 | 80 (≈ 159 µM) | >1.3 | > 75.5 | > 100 | – | > 100 | – | – | – | – | – |
| CCn1cc(C(=O)O)c(=O)c2cc(F)c(N3CCN(CNc4ccc(S(=O)(=O)Nc5nc(C)cc(C)n5)cc4)CC3)cc21 [NF-SDM] | – | – | – | 56.3 | – | – | – | – | > 56.3 | – | – | – | – | – | – | – | – |
| CCn1cc(C(=O)O)c(=O)c2cc(F)c(N3CCN(CNc4ccc(S(=O)(=O)Nc5ncccn5)cc4)CC3)cc21 [NF-SD] | – | – | – | 66.8 | – | > 32 | > 32 | – | > 66.8 | > 100 | – | > 100 | – | – | – | 32 (≈ 55 µM) | – |
| NC(=O)c1ncn([C@@H]2O[C@H](CO)[C@@H](O)[C@H]2O)n1 [Ribavirin, ribavirin, reference compound] | – | – | – | – | > 100 | 4.3 (≈ 17.6 µM) | 5.5 (≈ 22.5 µM) | >18 | – | 5.9 (≈ 24.2 µM) | >17 | 3.7 (≈ 15.2 µM) | >27 | >23 | – | – | 3.7 to 5.9 (≈ 15.2 to 24.2 µM) |

Reference: paper PMC2865816, “Synthesis and Antiviral Studies of Novel N-Sulphonamidomethyl piperazinyl Fluoroquinolones” (Indian Journal of Pharmaceutical Sciences, 2009)
